Measured values from DBAASP.
≈ marks a conversion by molar mass, not a printed value. Where “and” joins values, the source holds several entries; their conditions need not be identical. Equal entries are not always repeated.

Key:
Assay in all cases: ≥ marks a high value that may be exact or a test limit, other limits are often not marked, values filed in µg/mL are converted to µM
Escherichia coli C25 = test system: Escherichia coli C25
[1] = test system: Staphylococcus aureus ATCC 25923
[2] = test system: Staphylococcus aureus USA 300
Bacillus megaterium Bm11 = test system: Bacillus megaterium Bm11
[3] = test system: Escherichia coli ATCC 25922
[4] = test system: Pseudomonas aeruginosa ATCC 27853
[5] = test system: Staphylococcus aureus USA 100
[6] = test system: Klebsiella aerogenes ATCC 35029
[7] = test system: Enterobacter cloacae ATCC 49141
[8] = test system: Streptococcus pyogenes ATCC 49399
[9] = test system: Staphylococcus aureus ATCC 6538P
[10] = test system: Pseudomonas aeruginosa PAO1
[11] = test system: Candida albicans ATCC 90028
[12] = test system: Enterococcus faecalis ATCC 19433
[13] = test system: Pseudomonas aeruginosa ATCC 9027
[14] = test system: Pseudomonas aeruginosa Ps4
[15] = test system: Staphylococcus epidermidis ATCC 12228
[16] = test system: Staphylococcus aureus ATCC 29213
[17] = test system: Bacillus subtilis CMCC 63501
[18] = test system: Staphylococcus aureus ATCC 43300
[19] = test system: Salmonella typhimurium ATCC 7731
Escherichia coli UB1005 = test system: Escherichia coli UB1005
[20] = test system: Salmonella enterica subsp. enterica serovar Pullorum C79-13

## CC[C@H](C)[C@H](NC(=O)CNC(=O)[C@H](CCCN=C(N)N)NC(=O)[C@H](Cc1ccc(O)cc1)NC(=O)[C@@H](NC(=O)[C@H](CCCN=C(N)N)NC(=O)[C@H](Cc1ccccc1)NC(=O)[C@H](Cc1c[nH]c2ccccc12)NC(=O)[C@@H](N)CCCCN)C(C)C)C(=O)N[C@@H](Cc1ccc(O)cc1)C(N)=O [KWFRVYRGIY]
Escherichia coli C25
  MIC: ≥ 720 µM
[1]
  MIC: 180 µM (≈ 250 µg/mL)

## CC[C@H](C)[C@H](NC(=O)[C@H](CCCN=C(N)N)NC(=O)[C@@H](NC(=O)[C@H](CCCN=C(N)N)NC(=O)[C@H](Cc1c[nH]c2ccccc12)NC(=O)[C@H](Cc1ccccc1)NC(=O)[C@@H]1CCCN1)[C@@H](C)CC)C(=O)N[C@@H](CCCN=C(N)N)C(=O)N[C@@H](CCCN=C(N)N)C(N)=O [PFWRIRIRR]
[2]
  MIC: 12.5 µM (≈ 16.2 µg/mL)
Bacillus megaterium Bm11
  MIC: 1.25 µM (≈ 1.62 µg/mL)
[3]
  MIC: 8.71 µM and 10 µM
[4]
  MIC: 40 µM (≈ 51.9 µg/mL)
[5]
  MIC: 12.5 µM (≈ 16.2 µg/mL)
[6]
  MIC: ≥ 40 µM
[7]
  MIC: ≥ 40 µM
[8]
  MIC: 2.5 µM (≈ 3.25 µg/mL)
[9]
  MIC: ≥ 40 µM
[10]
  MIC: 24.6 µM (≈ 32 µg/mL)
[11]
  MIC: ≥ 100 µM
[12]
  MIC: ≥ 40 µM
[13]
  MIC: 100 µM (≈ 130 µg/mL)
[14]
  MIC: ≥ 48.1 µM

## CC(C)C[C@H](NC(=O)[C@H](CCCCN)NC(=O)[C@H](CCCCN)NC(=O)[C@H](C)NC(=O)[C@@H](NC(=O)[C@H](CCCCN)NC(=O)[C@H](CO)NC(=O)[C@H](CC(C)C)NC(=O)[C@H](Cc1c[nH]c2ccccc12)NC(=O)[C@H](CC(C)C)NC(=O)[C@H](CCCCN)NC(=O)[C@H](CCCCN)NC(=O)[C@H](C)NC(=O)[C@@H](NC(=O)[C@H](CCCCN)NC(=O)[C@H](CO)NC(=O)[C@H](CC(C)C)NC(=O)[C@H](Cc1c[nH]c2ccccc12)NC(=O)[C@H](CC(C)C)NC(=O)[C@H](CCCCN)NC(=O)[C@H](CCCCN)NC(=O)[C@H](C)NC(=O)[C@@H](NC(=O)[C@H](CCCCN)NC(=O)[C@H](CO)NC(=O)[C@H](CC(C)C)NC(=O)[C@@H](N)Cc1c[nH]c2ccccc12)[C@@H](C)O)[C@@H](C)O)[C@@H](C)O)C(N)=O [WLSKTAKKLWLSKTAKKLWLSKTAKKL]
[4]
  MIC: 2 µM (≈ 6.37 µg/mL)
[15]
  MIC: 32 µM (≈ 102 µg/mL)
[16]
  MIC: 32 µM (≈ 102 µg/mL)
[17]
  MIC: 8 µM (≈ 25.5 µg/mL)
[18]
  MIC: 32 µM (≈ 102 µg/mL)
[19]
  MIC: 8 µM (≈ 25.5 µg/mL)
Escherichia coli UB1005
  MIC: 2 µM (≈ 6.37 µg/mL)
[20]
  MIC: 2 µM (≈ 6.37 µg/mL)
